Target: T1, LTA4H (leukotriene A4 hydrolase) (Homo sapiens, UniProt P09960)
T1 sequence (P09960 2-611): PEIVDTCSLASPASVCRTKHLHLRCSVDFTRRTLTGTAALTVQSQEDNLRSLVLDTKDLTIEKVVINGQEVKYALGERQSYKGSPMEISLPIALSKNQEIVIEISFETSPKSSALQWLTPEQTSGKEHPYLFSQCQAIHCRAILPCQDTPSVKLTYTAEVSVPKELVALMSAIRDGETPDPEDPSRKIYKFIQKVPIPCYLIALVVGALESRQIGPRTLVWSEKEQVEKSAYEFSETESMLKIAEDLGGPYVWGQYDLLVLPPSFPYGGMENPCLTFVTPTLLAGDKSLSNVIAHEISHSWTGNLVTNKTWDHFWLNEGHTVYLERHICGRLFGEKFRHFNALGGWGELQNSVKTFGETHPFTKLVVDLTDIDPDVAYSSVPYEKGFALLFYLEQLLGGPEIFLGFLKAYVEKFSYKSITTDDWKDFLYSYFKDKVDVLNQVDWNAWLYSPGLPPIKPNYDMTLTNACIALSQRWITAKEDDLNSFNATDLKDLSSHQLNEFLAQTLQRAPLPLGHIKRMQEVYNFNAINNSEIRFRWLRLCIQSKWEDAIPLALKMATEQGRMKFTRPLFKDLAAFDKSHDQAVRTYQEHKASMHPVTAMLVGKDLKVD
Assay: X-ray co-crystal structure ([…] Å); purified enzyme inhibition (epoxide hydrolase IC50 […], aminopeptidase IC50 […])
Assay type: biochemical

IC50: 11.6 µM
Structure (SMILES): CCCCOc1ccc(CC(=O)NO)cc1 [Bufexamac]

Source: publication PMC4850449, “Bufexamac ameliorates LPS-induced acute lung injury in mice by targeting LTA4H” (Scientific Reports, 2016)
